Patent EP1123387B1, “MN GENE AND PROTEIN” (INSTITUTE OF VIROLOGY, priority 1998, dated 2000)
Like-named read-outs stand apart in the source and are kept apart here. Where a SMILES comes first, the peptide text is derived from it.

Key:
[1] = tested on: Rat2TK- cells and C33 human cervical carcinoma cells transfected with pMN-HSVtk
[2] = molecular target: T1, epitope of immobilized GST-MN (Homo sapiens, UniProt Q16790); experiment: Competition ELISA (peptides binding to the epitope of immobilized GST-MN); details: nonapeptides of 7 + 2 aa
T1 construct: expressed from pGEX-3X-MN containing the cDNA for the MN protein without the signal peptide; made in house; host or cells: bacteria (E. coli XL1-Blue)
Procedure: (§1) ELISA. Purified GST-MN [Zavada et al. (1993), supra] at concentration 10 ng /ml in carbonate buffer pH 9.2 was adsorbed for 3 h in Maxisorb strips (NUNC). After washing and blocking (1 h) with 0.05% Tween 20 in PBS, 50µl/well of the antibody + antigen mixtures were added. […] These mixtures were adsorbed for 1.5 h, followed by washing with Tween-PBS. Bound antibody was detected by antimouse lgG conjugate with peroxidase (SwAM-Px, SEVAC, Prague), diluted 1:1000. In the color reaction OPD (o-phenylenediamine dihydrochloride, Sigma) 1 mg/ml in 0.1 M citrate buffer pH 5.0 was used. To this H2O2 was added to final concentration 0.03%. This system is balanced so as to allow assay for antigen competing for M75 as well as for peptides binding to the epitope of immobilized GST-MN.
MN/CA IX. As an alternative to monoclonal antibodies, we set out to select oligopeptides exerting affinity to M75 epitope as well as to MN/CA IX receptor binding site from a phage display library of random heptapeptides - Ph.D.-7. Our aim was to select phages containing the desired heptapeptides by panning on immobilized peptide SEQ ID NO: 106 and subsequent elution with M75. Eluted phage was multiplied in appropriate bacteria and subjected to 4 more cycles of panning and elution. From the selected phage population, 10 plaques were picked, amplified and the heptapeptide-coding region was sequenced. Only 3 heptapeptides were represented. Those three heptapeptides, after adding alanine on both sides, are the following nonapeptides: […] [SEQ ID NO: 137]; […] [SEQ ID NO: 138]; and […] [SEQ ID NO: 139]. The last heptapeptide, synthesized again with added terminal alanines as nonapeptide […] [SEQ ID NO: 140], was identified by panning on GST-MN and eluted with acetazolamide. This last peptide has affinity to the active site of MN/CA IX carbonic anhydrase. We synthesized these peptides of 7 + 2 aa and tested them in competition ELISA and in cell adhesion inhibition. […] In all of those 4 nonapeptides, the C-terminal […] as amide.

[3] = molecular target: MN/CA IX (Homo sapiens, UniProt Q16790); experiment: Cell adhesion assay of Example 2 (inhibition of cell attachment to MN/CA IX dots); assay type: cell-based; details: nonapeptides of 7 + 2 aa
[4] = Tolerance of cell cultures to acetazolamide; assay type: cell-based, mouse; details: mouse, nih3t3 cells; confluent cultures, 3 days; read-out: concentration tolerated without any signs of toxicity and without any effect on cell morphology
[5] = tested on: NIH3T3 cells; experiment: Tolerance of cell cultures to acetazolamide; assay type: cell-based, mouse; details: sparse cultures
[6] = Tolerance of cell cultures to acetazolamide; assay type: cell-based, human; details: human, hela cells; confluent cultures, 3 days; read-out: concentration tolerated without any signs of toxicity and without any effect on cell morphology
[7] = tested on: HeLa; experiment: Tolerance of cell cultures to acetazolamide; assay type: cell-based, human; details: sparse cultures
[8] = tested on: NIH3T3 cells freshly transformed with the [pGD.MN + MLV] complex; experiment: Effect on morphologic transformation by MN; assay type: cell-based, mouse; details: 10^-5M, 4 days of incubation
Procedure: Thus, 10^-5M acetazolamide was added to NIH3T3 cells freshly transformed with the [pGD.MN + MLV] complex. After 4 days of incubation, the colonies were fixed and stained. No difference was seen between cells growing in the presence or absence of acetazolamide; both were indistinguishable from correctly transformed NIH3T3 cells. Thus, the enzymatic activity of carbonic anhydrase is not relevant for the transforming activity of MN protein.

[9] = tested on: MAb M75; experiment: Competition ELISA with M75 (antigen competing for M75); assay type: binding, mouse; details: for concentration causing 50% inhibition: GST-MN adsorbed, MAb 75 ascites fluid 10^-6; for reactive with the M75 MAb: test not given
Procedure: as §1
Identification of the epitope recognized by Mab M75. Preliminary mapping of M75 epitope employing partial sequences of extracellular parts of MN/CA9 cDNA expressed from bacterial vectors and tested on Western blots located it in PG region. For exact mapping, our strategy was to synthesize partially overlapping oligopeptides of 15-25 aa covering the PG domain and test them in competition ELISA with M75. According to the results, this was followed by a series of 6-12 aa oligopeptides. A major part of the PG domain consists of a 6-fold tandem repeat of 6 aa (aa 61 - 96) [SEQ ID NO: 97]; 4 repeats are identical (GEEDLP) [SEQ ID NO: 98] and 2 contain 2 aa exchanged (SEEDSP [SEQ ID NO: 141] and REEDPP [SEQ ID NO: 142]).

Compound: Nc1nc(O)c2ncn(COC(CO)CO)c2n1 [GVC, ganciclovir]
- cells killed [1]: up to 95%

Compound: CSCC[C@H](NC(=O)[C@H](CCCCN)NC(=O)[C@H](CCCCN)NC(=O)[C@H](C)N)C(=O)N[C@@H](CCCCN)C(=O)N[C@@H](CCCNC(=N)N)C(=O)N[C@@H](CCCNC(=N)N)C(=O)N[C@@H](CCCCN)C(=O)N[C@@H](C)C(N)=O [SEQ ID NO: 137] (H-AKKMKRRKA-NH2)
- activity in competition ELISA [2]: less active
- activity in cell adhesion inhibition [3]: less active

Compound: CC[C@H](C)[C@H](NC(=O)[C@H](C)N)C(=O)N[C@H](C(=O)N[C@@H](Cc1ccccc1)C(=O)N[C@@H](CC(N)=O)C(=O)N[C@@H](C)C(=O)N[C@@H](CCC(N)=O)C(=O)N[C@@H](Cc1ccc(O)cc1)C(=O)N[C@@H](C)C(N)=O)[C@@H](C)O [SEQ ID NO: 138] (H-AITFNAQYA-NH2)
- activity in competition ELISA [2]: highest activity
- activity in cell adhesion inhibition [3]: highest activity

Compound: CC(C)[C@H](NC(=O)[C@@H]1CCCN1C(=O)[C@H](C)NC(=O)[C@H](CO)NC(=O)[C@H](C)NC(=O)[C@H](CO)NC(=O)[C@H](C)N)C(=O)N[C@@H](CO)C(=O)N[C@@H](C)C(N)=O [SEQ ID NO: 139] (H-ASASAPVSA-NH2)
- activity in competition ELISA [2]: marginally positive
- activity in cell adhesion inhibition [3]: marginally positive only in ELISA

Compound: CC(C)C[C@H](NC(=O)[C@@H]1CCCN1C(=O)[C@H](CO)NC(=O)[C@H](CCCNC(=N)N)NC(=O)[C@@H](NC(=O)[C@H](CCC(N)=O)NC(=O)CNC(=O)[C@H](C)N)[C@@H](C)O)C(=O)N[C@@H](C)C(N)=O [SEQ ID NO: 140] (H-AGQTRSPLA-NH2)
- activity in competition ELISA [2]: inactive
- activity in cell adhesion inhibition [3]: inactive

Compound: CC(=O)Nc1nnc(S(N)(=O)=O)s1 [acetazolamide]
- MNTC at 72 h [4]: 10 to 1000 µM
- cell growth ([5]; 10^-4M): partial inhibition
- cell growth ([5]; 10^-5M): did not inhibit cell growth
- MNTC at 72 h [6]: 10 to 1000 µM
- cell growth ([7]; 10^-4M): partial inhibition
- cell growth ([7]; 10^-5M): did not inhibit cell growth
- difference between transformed cells growing in the presence or absence of the drug [8]: No difference

Compound: EDPPGEEDLPGEEDLPGEEDLPEVC [SEQ ID NO: 106]
- concentration causing 50% inhibition ([9]; competition ELISA): 1 ng/mL
- reactive with the M75 MAb [9]: reactive

Compound: GEEDLPSEEDSPREEDPPGEEDLPGEC [SEQ ID NO: 105]
- fold less active (than SEQ ID NOS: 104 and 106) ([9]; competition ELISA): 1000 x
- reactive with the M75 MAb [9]: reactive

Compound: GGSSGEDDPLGEEDLPSEEDSPC [SEQ ID NO: 104]
- concentration causing 50% inhibition ([9]; competition ELISA): 1 ng/mL
- reactive with the M75 MAb [9]: reactive
